What was measured:
[1] = test system: Kidney Injury Induced by Cisplatin Administration; assay: Cisplatin-induced kidney injury in mice, PAS histology of renal cortex; assay type: in vivo
Method: Wild-type male mice were used as test animals. The mice had free access to water and standard mouse chow. […] The same amount of physiological saline was intraperitoneally administered to the control group. A sample liquid was prepared by suspending Compound 011 (test compound) in PBS. […] The same amount of PBS was orally administered to the control group. […] Additionally, the mice that were not administered with cisplatin were treated in a similar manner, and the blood and kidneys were collected. The mice were thus divided into four groups. The mice were perfused transcardially with PBS (pH of 7.4). The collected kidneys were sliced, post-fixed in 4% PFA (paraformaldehyde), and embedded in paraffin or frozen in OCT compound to obtain section samples of renal cortex. The section samples of the four groups were stained with PAS (Periodic acid-Schiff) and observed under an optical microscope (400×) (FIG. 1). The renal tubular injury was quantitatively evaluated using PAS-stained section samples. […] The renal tubular injury was defined to be cellular necrosis, tubular dilatation, and cast formation.

[2] = test system: Kidney Injury Induced by Cisplatin Administration; assay: Plasma creatinine and urea nitrogen in cisplatin-treated mice; assay type: in vivo
Method: Wild-type male mice were used as test animals. […] The same amount of physiological saline was intraperitoneally administered to the control group. […] The same amount of PBS was orally administered to the control group. […] Plasma was obtained from the blood collected from the mice to measure the creatinine concentration and the urea nitrogen concentration (n=2 to 4 for each group). The creatinine concentration was measured by using a BioAssay Systems' Creatinine Assay Kit (DICT-500), and the urea nitrogen concentration was measured by using a Wako BUN-test. […] Additionally, in FIG. 3, “Cre” represents the creatinine concentration and “BUN” represents the serum urea nitrogen concentration.

[3] = test system: p53-positive cells / p62-positive dots (DNA damage, autophagy substrate); assay: p53 and p62 immunostaining of renal cortex after cisplatin administration; assay type: in vivo, mice; details: cisplatin 15 mg/kg i.p. plus test compound 10 mg/kg orally
Method: The kidneys of mice were collected as in Test Example 1. The kidneys were subjected to autoclaving at 120° C. for 10 minutes in a […] citrate buffer (pH of 6.0) for […] and to blocking with 1.5% bovine serum albumin in PBS for 60 minutes. Subsequently, paraffin embedding was performed to prepare section samples of renal cortex of the four groups.
The sections were incubated overnight at 4° C. with p53 or p62 primary antibodies.
For each group (n=2 to 4), the number of p53-positive cells or p62-positive dots were counted in fields at a magnification of 200× (p53) or 400× (p62) to calculate the average values.

[4] = test system: autophagy flux (GFP-LC3 dots per proximal tubule); assay: Autophagy flux in kidneys of GFP-LC3 transgenic mice after cisplatin, with or without chloroquine; assay type: in vivo
Method: The test animals were 8-week-old male autophagy-monitoring mice (GFP-LC3 transgenic mice). The mice had free access to water and standard mouse chow.
The test compound (compound 011) was suspended in PBS to prepare a sample liquid.
Six hours before anesthetization of the mice, a chloroquine solution was administered intraperitoneally as a lysosomal inhibitor at 50 μg/g body weight. Separately, a group in which the chloroquine solution was not administered was also prepared. The chloroquine solution was prepared by dissolving chloroquine (Sigma-Aldrich) in distilled water at a concentration of 5 mg/mL.
The autophagy flux was evaluated by quantifying GFP-LC3 dots (GFP-positive dots).
The kidney sections were immunostained with LRP2/Megalin (red), which is a marker for proximal tubular cells, and contrast-stained with DAPI (blue).
The number of GFP-LC3 dots (green) per proximal tubule in each group (n=5) was quantified in 10 high-magnification fields (600×), and the average values were used for evaluation.

[5] = test system: A549 cells; assay: LC3-II Western blotting in A549 cells with or without Bafilomycin A1; assay type: cell-based, human; details: 10 μM test compound, 6 hours, Bafilomycin A1 250 nM
Method: A549 cells (1.0×10^5 cells/well), i.e., human lung tumor cells, were seeded in a 6-well plate containing DMEM medium and cultured for 1 day, and the cells were washed with PBS.
A DMEM medium containing Bafilomycin Al (final concentration: 250 nM; also referred to as “Baf”) (Baf(+)) and a DMEM medium not containing Baf (Baf(−)) were prepared. Additionally, a Baf-containing DMEM medium with DMSO or Compound 011 (the test compound) and a Baf-free DMEM medium with DMSO or Compound 011 (the test compound) were also prepared, thus preparing a total of six different media. The final concentration of DMSO was 0.1% and the final concentration of the test compound was 10 μM. Separately, an Earle's balanced salt solution (EBSS; starvation) containing Baf and an EBSS not containing Baf were also prepared. 3 mL of one of the six types of media and two types of EBSSs was added to each well containing washed cells, followed by culturing for 6 hours. After washing the cells three times with PBS, RIPA buffer was added at 4° C., and the cells were allowed to stand on ice for 30 minute. The cells were then quickly and carefully collected from the wells. After the cells were collected, centrifugation (15000 rpm, 4° C., 30 min) was performed, and the supernatant was collected to obtain a protein solution. […]

[6] = cisplatin 15 mg/kg i.p. plus test compound 10 mg/kg orally, effect on cisplatin-induced increase
[7] = test compound 10 mg/kg orally, no cisplatin

SMILES | renal tubular injury (PAS-stained renal cortex sections) ([1]; cisplatin 15 mg/kg i.p. plus test compound 10 mg/kg orally for 3 consecutive days, 3 days after cisplatin) | score of renal tubular injury (PAS injury score) ([1]; cisplatin 15 mg/kg i.p. plus test compound 10 mg/kg orally, 10-scale grade) | change in PAS-stained renal cortex versus vehicle administration group ([1]; test compound 10 mg/kg orally for 3 days, no cisplatin) | plasma creatinine concentration [2, 6] | serum urea nitrogen (BUN) concentration [2, 6] | plasma creatinine concentration [2, 7] | serum urea nitrogen (BUN) concentration [2, 7] | number of p53-positive cells [3] | number of p62-positive dots [3] | number of GFP-LC3 dots per proximal tubule ([4]; cisplatin 15 mg/kg i.p. plus test compound 10 mg/kg orally, 2 days after cisplatin, without chloroquine) | number of GFP-LC3 dots per proximal tubule ([4]; cisplatin plus test compound 10 mg/kg orally plus chloroquine 50 μg/g i.p. 6 hours before anesthetization) | LC3-II protein level with Baf treatment relative to without Baf treatment [5] | degree of the LC3-II increase with Baf treatment compared with starvation (EBSS) [5] | number of GFP-LC3 dots per proximal tubule ([4]; cisplatin 15 mg/kg i.p. alone, without chloroquine) | number of GFP-LC3 dots per proximal tubule ([4]; cisplatin 15 mg/kg i.p. plus chloroquine on the second day, no test compound)
O=C(O)c1cnc(N2CCN(c3noc4cccc(C(F)(F)F)c34)CC2)c(Cl)c1 [Compound 011, 5-Chloro-6-(4-(4-(trifluoromethyl)benzo[d]isoxazol-3-yl)piperazin-1-yl)nicotinic acid] | clearly attenuated renal tubular injury caused by cisplatin | clearly attenuated | no apparent change | clearly suppressed | clearly suppressed | little or no change | little or no change | clearly reduced | clearly reduced | a decrease in GFP-LC3 dots | significantly increased | significant increase in LC3-II with the Baf treatment | comparable to that of starvation |  | 
N.N.[Cl][Pt][Cl] [cisplatin, reference compound] |  |  |  |  |  |  |  |  |  |  |  |  |  | increased GFP-LC3 dots | no increase in GFP-LC3 dots

— patent publication US20240307375A1, “PHARMACEUTICAL COMPOSITION FOR PREVENTING AND/OR TREATING KIDNEY INJURY, AND AUTOPHAGY ACTIVATOR” (OSAKA UNIVERSITY, priority 2021, published 2024)
